Data reported in US20240390487A1, “TLR AGONISTS FOR REDUCING ACTIVATION-INDUCED PD-1 EXPRESSION ON T CELLS AND METHODS OF USE” (WISCONSIN ALUMNI RESEARCH FOUNDATION, priority 2016, published 2024).

Test system: OT-1 CD8+ T cells
Experiment: Adoptive transfer of OT-1 T cells and immunization of C57BL/6 mice, marker expression on splenic OT-1 T cells
Type: in vivo
Settings: OVA or FT peptide immunization with TLR ligand versus peptide alone; splenocytes up to 14 days; early after T-cell activation
From the text: Vaccine type can affect expression of T-cell checkpoint molecules on activated CD8+ T cells: This Example used an ovalbumin vaccination model. OT-1 cells were adoptively transferred to naïve C57BL/6 mice. The day after transfer, mice were immunized once with (a) DNA encoding ovalbumin, (b) Listeria monocytogenes (Lm) encoding ovalbumin, (c) OVA257-264 peptide (SIINFEKL (SEQ ID NO:1)), (d) SIINFEKL peptide (SEQ ID NO:1) with DNA vector, (e) DNA vector alone, (f) Lm encoding control vector with no antigen, or (g) NS (non-specific) peptide. Splenocytes were collected the day after vaccination for expression of cell surface markers on antigen-specific OT-1 cells. […] LAG-3 expression was not reduced in the presence of Lm co-administered with peptide.
TLR stimulation at the time of T-cell activation reduced expression of PD-1 in vivo: To determine whether TLR stimulation at the time of T-cell activation with vaccination elicited a similar reduction in PD-1 in vivo, OT-1 cells were adoptively transferred to naïve C57BL/6 mice as above, and immunized once with OVA or FT peptide (or non-specific peptide) one day later in the presence or absence of a TLR 1/2, TLR7, or TLR9 ligand. Splenocytes were collected from groups up to 14 days after immunization and evaluated for expression of 4-1BB, PD-1 and LAG-3.
Adoptive transfer and immunization of wild type C57BL/6 (B6) mice: OT-1 splenocytes were harvested and CD8+ T cells were isolated as described above. 2×10^6 OT-1 T cells were adoptively transferred into 6- to 10-week old female B6 mice via intraperitoneal injection. The day following transfer, mice were immunized subcutaneously with 100 μg SIINFEKL peptide (SEQ ID NO:1) in PBS without adjuvant, intradermally with 100 μg plasmid encoding full length secreted chicken egg ovalbumin (pCI-neo-sOVA (psOVA), Addgene plasmid #25098, Cambridge, MA), intraperitoneally with 5×10^6 cfu of a Listeria monocytogenes vector encoding ovalbumin (Lm-OVA, gift of JD Sauer), or vehicle or corresponding wild-type Lm or DNA plasmid vector. TLR agonists were co-injected with the vaccine at the following concentrations: 20 μg/mouse Pam3CSK4, 100 μg/mouse Gardiquimod, 50 μg/mouse ODN 1826, or vehicle. Mice were euthanized at the times indicated. Spleens were collected, processed as described above, and T-cell populations analyzed by flow cytometry. Data collected on different days were normalized using rainbow beads (Spherotech, Lake Forest, IL; RFP-30-5A).

Compound	PD-1 expression on OT-1 CD8+ T cells in vivo
CCNCc1nc2c(N)nc3ccccc3c2n1CC(C)(C)O [Gardiquimod]	significantly reduced
Pam3CSK4	significantly reduced
